Laboratory results as given in PubChem BioAssay AID256 (DTP/NCI, 2004).
Inconclusive results and toxic doses are left out.

Tested on: CD2F1 mice, L1210 leukemia ip, survival T/C
Assay: NCI In Vivo Anticancer Drug Screen. Data for tumor model L1210 Leukemia (intraperitoneal) in CD2F1 (CDF1) mice
Conditions: higher = longer survival
Method in brief: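 In this screen, transplantable tumors were grown in mice given either the compound or its vehicle. Results were expressed as the treated measurement relative to the control measurement.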

[1] = endpoint: mean survival time, dose: 100.0 mg/kg/injection, schedule: Q01DX009 (ip), vehicle: saline with Tween-80
[2] = endpoint: mean survival time, dose: 200.0 mg/kg/injection, schedule: Q01DX009 (ip), vehicle: saline with Tween-80
[3] = endpoint: mean survival time, dose: 400.0 mg/kg/injection, schedule: Q01DX009 (ip), vehicle: saline with Tween-80
[4] = endpoint: mean survival time, dose: 100.0 mg/kg/injection, schedule: Q04DX003 (ip), vehicle: saline with Tween-80
[5] = endpoint: mean survival time, dose: 200.0 mg/kg/injection, schedule: Q04DX003 (ip), vehicle: saline with Tween-80
[6] = endpoint: mean survival time, dose: 400.0 mg/kg/injection, schedule: Q04DX003 (ip), vehicle: saline with Tween-80
[7] = endpoint: mean survival time, dose: 100.0 mg/kg/injection, schedule: Q01DX001 (ip), vehicle: saline
[8] = endpoint: mean survival time, dose: 200.0 mg/kg/injection, schedule: Q01DX001 (ip), vehicle: saline
[9] = endpoint: mean survival time, dose: 100.0 mg/kg/injection, schedule: Q04DX002 (ip), vehicle: saline with Tween-80
[10] = endpoint: mean survival time, dose: 200.0 mg/kg/injection, schedule: Q04DX002 (ip), vehicle: saline with Tween-80
[11] = endpoint: mean survival time, dose: 100.0 mg/kg/injection, schedule: Q04DX003 (ip), vehicle: saline
[12] = endpoint: mean survival time, dose: 200.0 mg/kg/injection, schedule: Q04DX003 (ip), vehicle: saline
[13] = endpoint: mean survival time, dose: 100.0 mg/kg/injection, schedule: Q01DX001 (ip), vehicle: Klucel (hydroxypropylcellulose) (HPC)
[14] = endpoint: mean survival time, dose: 200.0 mg/kg/injection, schedule: Q01DX001 (ip), vehicle: Klucel (hydroxypropylcellulose) (HPC)
[15] = endpoint: mean survival time, dose: 400.0 mg/kg/injection, schedule: Q01DX001 (ip), vehicle: Klucel (hydroxypropylcellulose) (HPC)
[16] = endpoint: mean survival time, dose: 100.0 mg/kg/injection, schedule: Q01DX001 (ip), vehicle: saline with Tween-80
[17] = endpoint: mean survival time, dose: 200.0 mg/kg/injection, schedule: Q01DX001 (ip), vehicle: saline with Tween-80
[18] = endpoint: mean survival time, dose: 400.0 mg/kg/injection, schedule: Q01DX001 (ip), vehicle: saline with Tween-80

## O=C(CNC(=O)NCc1ccco1)NNC(=O)Nc1ccc(F)c(Cl)c1
[1]
  T/C: 93 % of control
[2]
  T/C: 88 % of control
[3]
  T/C: 96 % of control

## CCOP(=O)(OCC)/C(C#N)=C\c1ccc(O)c(OC)c1
[4]
  T/C: 98 % of control
[5]
  T/C: 101 % of control
[6]
  T/C: 96 % of control

## Cc1nc(N)[nH]c(=O)c1CCCNS(=O)(=O)c1ccc(CN)cc1
[7]
  T/C: 110 % of control
[8]
  T/C: 101 % of control
endpoint: mean survival time, dose: 400.0 mg/kg/injection, schedule: Q01DX001 (ip), vehicle: saline
  T/C: 100 % of control

## Nc1ccnc(SCc2ccc3ccccc3c2)n1
[9]
  T/C: 93 % of control
[10]
  T/C: 101 % of control
endpoint: mean survival time, dose: 400.0 mg/kg/injection, schedule: Q04DX002 (ip), vehicle: saline with Tween-80
  T/C: 101 % of control

## CCOC(=O)C(F)(C(=O)OCC)[N+](=O)[O-]
endpoint: mean survival time, dose: 50.0 mg/kg/injection, schedule: Q04DX003 (ip), vehicle: saline
  T/C: 102 % of control
[7]
  T/C: 101 % of control
[11]
  T/C: 100 % of control
[8]
  T/C: 104 % of control
[12]
  T/C: 88 % of control

## COc1ccc(OC)c(N=C2C(=O)Nc3ccc(Br)cc32)c1
[9]
  T/C: 91 % of control
[10]
  T/C: 91 % of control

## Nc1ccc(C(=O)O)c([N+](=O)[O-])c1
[13]
  T/C: 96 % of control
[14]
  T/C: 100 % of control
[15]
  T/C: 100 % of control

## [C-]#[N+]C(C)(CC)c1ccccc1 (configuration not stated)
endpoint: mean survival time, dose: 35.0 mg/kg/injection, schedule: Q01DX009 (ip), vehicle: saline with Tween-80
  T/C: 105 % of control

## [N-]=[N+]=NC1CC(n2ccc(N)nc2=O)OC1CO (configuration not stated)
endpoint: median survival time, dose: 12.5 mg/kg/injection, schedule: Q01DX005 (ip), vehicle: saline
  T/C: 113 % of control
endpoint: median survival time, dose: 25.0 mg/kg/injection, schedule: Q01DX005 (ip), vehicle: saline
  T/C: 109 % of control
endpoint: median survival time, dose: 50.0 mg/kg/injection, schedule: Q01DX005 (ip), vehicle: saline
  T/C: 98 % of control
endpoint: median survival time, dose: 100.0 mg/kg/injection, schedule: Q01DX005 (ip), vehicle: saline
  T/C: 107 % of control
endpoint: median survival time, dose: 200.0 mg/kg/injection, schedule: Q01DX005 (ip), vehicle: saline
  T/C: 103 % of control

## Nc1cccc(CC(=O)Nc2cccc(S(=O)(=O)F)c2)c1
[16]
  T/C: 96 % of control
[17]
  T/C: 95 % of control
[18]
  T/C: 90 % of control

## CN(C)P1(N)=NP(N)(N(C)C)=NP(N)(N(C)C)=N1 (configuration not stated)
[11]
  T/C: 100 % of control
[12]
  T/C: 94 % of control
endpoint: mean survival time, dose: 400.0 mg/kg/injection, schedule: Q04DX003 (ip), vehicle: saline
  T/C: 96 % of control

## N#Cc1cn(C2OC(CO)C(O)C2O)c2ncnc(NC(=O)c3ccccc3)c12 (configuration not stated)
endpoint: mean survival time, dose: 0.78 mg/kg/injection, schedule: Q01DX001 (ip), vehicle: suspension in saline
  T/C: 95 % of control
endpoint: mean survival time, dose: 1.56 mg/kg/injection, schedule: Q01DX001 (ip), vehicle: suspension in saline
  T/C: 106 % of control
endpoint: mean survival time, dose: 3.13 mg/kg/injection, schedule: Q01DX001 (ip), vehicle: suspension in saline
  T/C: 110 % of control
endpoint: mean survival time, dose: 6.25 mg/kg/injection, schedule: Q01DX001 (ip), vehicle: suspension in saline
  T/C: 108 % of control
endpoint: mean survival time, dose: 12.5 mg/kg/injection, schedule: Q01DX001 (ip), vehicle: suspension in saline
  T/C: 111 % of control

## Nc1nc([Se]c2nc(N)nc3c2ncn3C2OC(CO)C(O)C2O)c2ncn(C3OC(CO)C(O)C3O)c2n1 (configuration not stated)
endpoint: median survival time, dose: 36.0 mg/kg/injection, schedule: Q01DX005 (ip), vehicle: distilled water + Tween-80
  T/C: 156 % of control
endpoint: median survival time, dose: 60.0 mg/kg/injection, schedule: Q01DX005 (ip), vehicle: distilled water + Tween-80
  T/C: 162 % of control

## O=S(=O)(NC(=S)Nc1ccc(Cl)cc1)c1ccccc1
[1]
  T/C: 93 % of control
[2]
  T/C: 109 % of control

## O=C1C(=O)N(CNC(c2ccccc2)c2ccccc2)c2ccccc21
[16]
  T/C: 101 % of control
[18]
  T/C: 86 % of control

## O=C1OC2CC1(O)CC(O)C2O (configuration not stated)
[16]
  T/C: 96 % of control
[17]
  T/C: 89 % of control

## COS(=O)(=O)C=C(c1ccccc1)c1ccccc1
endpoint: mean survival time, dose: 75.0 mg/kg/injection, schedule: Q01DX009 (ip), vehicle: saline
  T/C: 103 % of control
endpoint: mean survival time, dose: 75.0 mg/kg/injection, schedule: Q04DX003 (ip), vehicle: saline
  T/C: 91 % of control
endpoint: mean survival time, dose: 150.0 mg/kg/injection, schedule: Q01DX009 (ip), vehicle: saline
  T/C: 100 % of control
endpoint: mean survival time, dose: 150.0 mg/kg/injection, schedule: Q04DX003 (ip), vehicle: saline
  T/C: 94 % of control
endpoint: mean survival time, dose: 300.0 mg/kg/injection, schedule: Q01DX009 (ip), vehicle: saline
  T/C: 100 % of control
endpoint: mean survival time, dose: 300.0 mg/kg/injection, schedule: Q04DX003 (ip), vehicle: saline
  T/C: 91 % of control

## O=[n+]1ccn2cc3ccccc3cc2c1
endpoint: mean survival time, dose: 12.5 mg/kg/injection, schedule: Q04DX003 (ip), vehicle: saline with Tween-80
  T/C: 86 % of control
endpoint: mean survival time, dose: 50.0 mg/kg/injection, schedule: Q04DX003 (ip), vehicle: saline with Tween-80
  T/C: 100 % of control

## Cc1ccccc1N=C(c1ccccc1)C1C(=O)c2ccccc2C1=O
endpoint: median survival time, dose: 50.0 mg/kg/injection, schedule: Q01DX005 (ip), vehicle: DMSO
  T/C: 103 % of control
endpoint: median survival time, dose: 100.0 mg/kg/injection, schedule: Q01DX005 (ip), vehicle: DMSO
  T/C: 100 % of control
endpoint: median survival time, dose: 200.0 mg/kg/injection, schedule: Q01DX005 (ip), vehicle: DMSO
  T/C: 103 % of control
endpoint: median survival time, dose: 400.0 mg/kg/injection, schedule: Q01DX005 (ip), vehicle: DMSO
  T/C: 101 % of control
endpoint: median survival time, dose: 800.0 mg/kg/injection, schedule: Q01DX005 (ip), vehicle: DMSO
  T/C: 100 % of control

## Cc1cc(O)c(N=Nc2ccc(Br)cc2)cc1C
endpoint: mean survival time, dose: 50.0 mg/kg/injection, schedule: Q01DX009 (ip), vehicle: saline with Tween-80
  T/C: 97 % of control
[1]
  T/C: 93 % of control
[2]
  T/C: 97 % of control

## O=Cc1cc([N+](=O)[O-])ccc1OCC(=O)O
[1]
  T/C: 92 % of control
[2]
  T/C: 95 % of control
[3]
  T/C: 96 % of control

## Clc1ccc(-c2nc3ccccc3s2)cc1
[13]
  T/C: 100 % of control
[14]
  T/C: 95 % of control
[15]
  T/C: 100 % of control

## CC(=O)Nc1cccc2ccc3c4ccccc4ccc3c12
[4]
  T/C: 86 % of control
[5]
  T/C: 89 % of control
[6]
  T/C: 98 % of control
